Source: PubChem BioAssay AID651650 (Sanford-Burnham Center for Chemical Genomics, 2012)
The source made the active and inactive calls.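 How the source made its calls: active means mean IC50 below 20 µM in each of the two panels, so potent in both; inactive means the rest.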

target: Neuropilin-1 (Homo sapiens) (UniProt O14786); experiment: blockers of CendR peptide binding to NRP-1 – biochemical, FP and AlphaScreen panel, dose response (AID 651650); settings: NRP-1 b1b2 / RPARPAR peptide binding, FP or AlphaScreen; AlphaScreen, run 1; individual panel run IC50
Sequence (O14786 whole entry, looked up): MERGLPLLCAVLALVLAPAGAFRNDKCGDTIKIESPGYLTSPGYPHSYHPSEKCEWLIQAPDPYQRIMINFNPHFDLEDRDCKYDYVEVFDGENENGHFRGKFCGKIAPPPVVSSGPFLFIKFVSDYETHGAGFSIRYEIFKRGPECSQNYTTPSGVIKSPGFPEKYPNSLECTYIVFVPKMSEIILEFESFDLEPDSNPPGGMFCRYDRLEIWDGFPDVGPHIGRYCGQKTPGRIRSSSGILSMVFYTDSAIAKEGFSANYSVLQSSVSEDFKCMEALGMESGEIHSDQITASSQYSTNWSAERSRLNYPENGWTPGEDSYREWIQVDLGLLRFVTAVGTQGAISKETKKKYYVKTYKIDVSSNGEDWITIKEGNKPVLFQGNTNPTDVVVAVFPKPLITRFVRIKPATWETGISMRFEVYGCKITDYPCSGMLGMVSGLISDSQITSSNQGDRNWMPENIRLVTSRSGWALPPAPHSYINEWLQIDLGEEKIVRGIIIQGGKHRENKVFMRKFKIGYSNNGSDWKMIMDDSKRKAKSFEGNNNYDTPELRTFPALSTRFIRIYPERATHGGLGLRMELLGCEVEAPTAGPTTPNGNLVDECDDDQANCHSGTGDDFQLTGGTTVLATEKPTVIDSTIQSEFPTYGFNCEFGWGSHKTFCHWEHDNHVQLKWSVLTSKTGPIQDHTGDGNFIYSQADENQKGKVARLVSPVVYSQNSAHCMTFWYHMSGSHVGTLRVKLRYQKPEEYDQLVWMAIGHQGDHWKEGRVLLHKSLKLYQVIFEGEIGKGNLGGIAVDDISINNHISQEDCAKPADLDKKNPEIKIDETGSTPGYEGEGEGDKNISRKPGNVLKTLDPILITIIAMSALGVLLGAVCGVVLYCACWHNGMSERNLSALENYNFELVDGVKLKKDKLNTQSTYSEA

Question: With `COc1ccc(C(=O)COC(=O)C(CCSC)NS(=O)(=O)c2ccc(Cl)cc2)cc1` (stereo not given) as the molecule, how does the IC50 read?
Answer: > 100 µM

Question: `CCN(CCCNC(=O)CNC(=O)c1nn(-c2ccc(OC)cc2OC)c(=O)c2ccccc12)c1cccc(C)c1` was tested. Which IC50 did it give?
Answer: > 100 µM

Question: For `CC(C)(C)C(=O)COC(=O)c1cc(-c2ccncc2)nc2ccccc12`, which IC50 is on record?
Answer: > 100 µM

Question: Which IC50 does the source give for `C[C@@H](NC(=O)c1nc[nH]c1C(=O)NCc1ccccc1)c1ccccc1` here?
Answer: > 100 µM

Question: How did the IC50 turn out when `O=C(CSc1nc2ccc(Cl)cc2[nH]1)NCCc1ccccc1` was run?
Answer: > 100 µM

Question: With `O=c1ccsn1Cc1ccccc1` as the molecule, how does the IC50 read?
Answer: > 100 µM

Question: With `CCCN=C1N/C(=C\c2ccco2)C(=O)N1c1ccccc1` as the molecule, how does the IC50 read?
Answer: > 100 µM

Question: Which IC50 does the source give for `CCOc1cc(C(=O)NCCN2CCOCC2)cc(OCC)c1OCC` here?
Answer: > 100 µM

Question: With `COc1ccc(CN2C(=O)c3ccccc3C2=O)cc1C(=O)Nc1ccccc1N1CCOCC1` as the molecule, how does the IC50 read?
Answer: > 100 µM

Question: `NC(=O)C(c1ccc(Cl)cc1Cl)c1ncc(C(F)(F)F)cc1Cl` (stereo not given) was tested. Which IC50 did it give?
Answer: > 100 µM

Question: With `Cc1ccc(NC(=O)COc2ncnc3c(Cl)cc(Cl)cc23)cc1[N+](=O)[O-]` as the molecule, how does the IC50 read?
Answer: > 100 µM

Question: For `COc1cc(OC)nc(NC(=O)COC(=O)c2cccc(Cl)c2)n1`, which IC50 is on record?
Answer: 27.1 µM

Question: How did the IC50 turn out when `Cn1cccc1C1Nc2ccccc2NC2=C1C(=O)CC(C)(C)C2` (stereo not given) was run?
Answer: > 100 µM

Question: Which IC50 does the source give for `c1cc(CNc2ccc3c(c2)OCO3)ccn1` here?
Answer: > 100 µM

Question: `CCOc1ccc(S(=O)(=O)N2CCN(C(=O)c3sccc3C)CC2)cc1` was tested. Which IC50 did it give?
Answer: 14.5 µM

Question: With `COC(=O)Cc1ccc(NC(=S)NCCCO)cc1` as the molecule, how does the IC50 read?
Answer: > 100 µM

Question: `O=C(COc1cc(Cl)c(Cl)cc1Cl)Nc1ccc([N+](=O)[O-])cc1Cl` was tested. Which IC50 did it give?
Answer: > 100 µM

Question: For `C=C1C[C@@]23CCC4[C@@](C)(CCC[C@@]4(C)C(=O)O)C2CC[C@]1(O)C3` (stereo not given in full), which IC50 is on record?
Answer: > 100 µM

Question: For `O=C(c1ccco1)N1CCN(C(=O)c2ccccc2OC(=O)C23CC4CC(CC(C4)C2)C3)CC1`, which IC50 is on record?
Answer: 0.965 µM

Question: Which IC50 does the source give for `CCC1=C(OC(=O)N(CC)CC)N2C(=O)OC(=NCC3CC3)[C@]2(Cc2ccccc2)[C@H]2C1=CC[C@H]1C(=O)N(C)C(=O)[C@H]12` here?
Answer: > 100 µM

Question: With `CCOc1ccc(C2CC(c3ccc(CC)cc3)n3nc(N)nc3N2)cc1` (stereo not given) as the molecule, how does the IC50 read?
Answer: > 100 µM

Question: For `CNC(=O)Nc1ccccc1C(=O)NCc1ccccc1`, which IC50 is on record?
Answer: > 100 µM

Question: With `Cc1cc(=O)n2nc(N3CCCC(C(=O)N4CCOCC4)C3)sc2n1` (stereo not given) as the molecule, how does the IC50 read?
Answer: > 100 µM

Question: With `CC(C)Cc1ccc(C(C)C(=O)Nc2ccc(O)cc2)cc1` (stereo not given) as the molecule, how does the IC50 read?
Answer: > 100 µM

Question: Which IC50 does the source give for `CCOC(=O)/C=C/COc1ccccc1[N+](=O)[O-]` here?
Answer: > 100 µM

Question: How did the IC50 turn out when `COc1ccc(C(=O)N2CCC(C(=O)NCc3ccccn3)CC2)cc1` was run?
Answer: > 100 µM

Question: With `O=C(CSc1nc2ccccc2n1Cc1ccccc1Cl)N/N=C/c1ccccc1C(=O)O` as the molecule, how does the IC50 read?
Answer: 39.2 µM

Question: How did the IC50 turn out when `Cc1ccc(C(=O)OCC(=O)c2ccc(Cl)s2)s1` was run?
Answer: > 100 µM

Question: With `CCOC(=O)C1CCN(Cc2ccc3ccccc3c2)CC1` as the molecule, how does the IC50 read?
Answer: > 100 µM

Question: How did the IC50 turn out when `CC(C)Oc1ccc(F)cc1-c1cc(C(=O)NCc2ccc(F)cc2)[nH]n1` was run?
Answer: > 100 µM

Question: Which IC50 does the source give for `CC1(C)S[C@@H]2[C@H](NC(=O)COc3ccccc3)C(=O)N2C1C(=O)OCc1ccccc1` (stereo not given in full) here?
Answer: > 100 µM

Question: How did the IC50 turn out when `CC(=O)OC1CC[C@]2(C#N)[C@H]3CC[C@]4(C)[C@H](C5C=CC(=O)O5)CCC4(O)C3CCC2(O)C1` (stereo not given in full) was run?
Answer: > 100 µM

Question: For `CCCCOc1ccc(C(=O)N/C(=C/C=C/c2ccccc2)C(=O)NCCCO)cc1`, which IC50 is on record?
Answer: > 100 µM

same assay, conditions: NRP-1 b1b2 / RPARPAR peptide binding, FP or AlphaScreen; FP, mean of runs

Question: With `CCn1c(SCC(=O)c2ccccc2)nnc1-c1cccs1` as the molecule, how does the IC50 read?
Answer: > 95 µM (inactive)

Question: Which IC50 does the source give for `CCN(c1ccccc1)S(=O)(=O)c1ccc(C(=O)N(CCCN(C)C)c2nc3cc4c(cc3s2)OCO4)cc1` here?
Answer: > 95 µM (inactive)

Question: `O=C(/C=C/c1ccco1)N/C(=C\c1ccccc1)C(=O)NCCc1nc2ccccc2[nH]1` was tested. Which IC50 did it give?
Answer: > 95 µM (inactive)

Question: With `Cc1ccccc1/C=C/c1nc2ccccc2c(=O)n1CCc1ccccc1` as the molecule, how does the IC50 read?
Answer: > 95 µM (inactive)

Question: `Cc1nn(-c2ccccc2)c(C)c1C(=O)OCC(=O)Nc1ccccc1` was tested. Which IC50 did it give?
Answer: > 95 µM (inactive)

Question: How did the IC50 turn out when `CCOC(=O)Cc1csc(NC(=O)CSc2ncnc3c2cnn3-c2ccccc2Cl)n1` was run?
Answer: > 95 µM (inactive)

Question: For `COC(=O)N[C@@H]1C[C@H]2[C@@H]3CC[C@H]4C[C@@H](OC)CC[C@]4(C)[C@H]3CC[C@]12C`, which IC50 is on record?
Answer: > 95 µM (inactive)

Question: With `Cc1ccc(NC(=S)Nc2cccc3ccccc23)cc1` as the molecule, how does the IC50 read?
Answer: > 95 µM (inactive)

Question: How did the IC50 turn out when `Cc1cccc(NC(=O)c2ccc(OCc3c(C)noc3C)cc2)c1` was run?
Answer: > 95 µM (inactive)

Question: Which IC50 does the source give for `O=C(NCCCN1CCCCCC1)c1ccc(CS(=O)(=O)Cc2ccccc2F)o1` here?
Answer: > 95 µM (inactive)

Question: With `CC(Oc1ccccc1)C(=O)NC1=NCCS1` (stereo not given) as the molecule, how does the IC50 read?
Answer: > 95 µM (inactive)

Question: How did the IC50 turn out when `COc1ccc(C(=O)COC(=O)C(CCSC)NS(=O)(=O)c2ccc(Cl)cc2)cc1` (stereo not given) was run?
Answer: > 95 µM (inactive)

Question: `CCN(CCCNC(=O)CNC(=O)c1nn(-c2ccc(OC)cc2OC)c(=O)c2ccccc12)c1cccc(C)c1` was tested. Which IC50 did it give?
Answer: > 95 µM (inactive)

Question: How did the IC50 turn out when `CC(C)(C)C(=O)COC(=O)c1cc(-c2ccncc2)nc2ccccc12` was run?
Answer: inactive

Question: How did the IC50 turn out when `C[C@@H](NC(=O)c1nc[nH]c1C(=O)NCc1ccccc1)c1ccccc1` was run?
Answer: > 95 µM (inactive)

Question: Which IC50 does the source give for `O=C(CSc1nc2ccc(Cl)cc2[nH]1)NCCc1ccccc1` here?
Answer: > 95 µM (inactive)

Question: For `O=c1ccsn1Cc1ccccc1`, which IC50 is on record?
Answer: > 95 µM (inactive)

Question: For `CCCN=C1N/C(=C\c2ccco2)C(=O)N1c1ccccc1`, which IC50 is on record?
Answer: > 95 µM (inactive)

Question: How did the IC50 turn out when `CCOc1cc(C(=O)NCCN2CCOCC2)cc(OCC)c1OCC` was run?
Answer: > 95 µM (inactive)

Question: `COc1ccc(CN2C(=O)c3ccccc3C2=O)cc1C(=O)Nc1ccccc1N1CCOCC1` was tested. Which IC50 did it give?
Answer: > 95 µM (inactive)

Question: Which IC50 does the source give for `NC(=O)C(c1ccc(Cl)cc1Cl)c1ncc(C(F)(F)F)cc1Cl` (stereo not given) here?
Answer: > 95 µM (inactive)

Question: `Cc1ccc(NC(=O)COc2ncnc3c(Cl)cc(Cl)cc23)cc1[N+](=O)[O-]` was tested. Which IC50 did it give?
Answer: > 95 µM (inactive)
